Target: Acyl-protein thioesterase 1 (Homo sapiens) + Acyl-protein thioesterase 2 (Homo sapiens) (UniProt O75608+O95372)
Assay: covalent versus reversible binding mode of APT1/APT2 inhibitors – cell lysate, HeLa lysate, fluorescence gel ABPP, mechanism study for LYPLA1/LYPLA2 inhibitor project, late-stage follow-up (AID 743133)
Conditions: HeLa lysate gel-based ABPP, FP-Rh; for recovery after gel filtration: stronger effect = lower value; for inhibition: gel filtration, stronger effect = higher value

Acyl-protein thioesterase 1 (Homo sapiens) + Acyl-protein thioesterase 2 (Homo sapiens), sequence (O75608 whole entry, looked up, one chain of several): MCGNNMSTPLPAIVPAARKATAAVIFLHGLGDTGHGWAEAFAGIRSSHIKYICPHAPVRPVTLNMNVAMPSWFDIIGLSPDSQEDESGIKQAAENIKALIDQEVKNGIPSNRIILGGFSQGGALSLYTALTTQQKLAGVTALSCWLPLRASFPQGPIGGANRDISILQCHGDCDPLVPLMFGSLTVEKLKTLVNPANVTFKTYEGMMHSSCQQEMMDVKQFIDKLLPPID

- recovery after gel filtration (at 0.2 µM): 0%
- recovery after gel filtration (at 1 µM): 0%
- inhibition (at 0.2 µM, post-gel filtration inhibition): 85%
- inhibition (at 0.2 µM, pre-gel filtration inhibition): 85%
- inhibition (at 1 µM, post-gel filtration inhibition): 95%
- inhibition (at 1 µM, pre-gel filtration inhibition): 95%
Structure (SMILES): O=C(ON1C(=O)C2CN(C(=O)N3CCOCC3)CCN2C1=O)N1CCC(CCc2ccc(Cl)cc2)CC1 (stereo unspecified)
